A short description of this data set: Fluorescence emission in glycerol and methanol (Test Example 1). It counts as physicochemical. Particulars: for Fluorescence intensity ratio in glycerol and methanol: 1×10^−5 M in glycerol vs methanol, maximum excitation wavelength; for Emission wavelength: 1×10^−5 M, excited at maximum excitation wavelength of each dye. On the procedure: The fluorescent dye (molecular rotors) prepared in Examples dye1-dye42 were dissolved in DMSO each to prepare a mother solution with a concentration of 1×10^−2 M, and each mother solution was added to glycerol and methanol respectively and was mixed well, and a solution with a final concentration of 1×10^−5 M was prepared.

`CN(CCO)c1ccc2c(c1)C(C)(C)c1cc(/C=C3\SC(=S)NC3=O)ccc1-2` [dye35]: the “Fluorescence intensity ratio in glycerol and methanol” value (from here on “Fluorescence intensity ratio”) is listed as 530; the Emission wavelength amounted to 740 nm.

As to `CN1C(=S)S/C(=C\c2cc3sc(N(C)CCO)cc3s2)C1=S` [dye16], the “Fluorescence intensity ratio” value amounted to 982; the Emission wavelength is 730 nm.

For the compound `CN(CCO)c1cc2sc(/C=C3\NC(=S)N(CCC(=O)O)C3=O)cc2s1` [dye17], the “Fluorescence intensity ratio” value turned out to be 993; the Emission wavelength stood at 630 nm.

`CN1CCOc2cc(/C=C3\SC(=O)NC3=S)ccc21` [dye4]: the “Fluorescence intensity ratio” value came out at 984; the Emission wavelength came out at 620 nm.

With `CN(CCO)c1ccc2c(c1)C(C)(C)C(/C=C1\SC(=O)NC1=O)=N2` [dye44], the “Fluorescence intensity ratio” value is 465; the Emission wavelength came to 680 nm.

Take `CN(C)c1ccc2cc(/C=C3\SC(=S)N(N)C3=O)sc2c1` [dye30]: the “Fluorescence intensity ratio” value turned out to be 761; the Emission wavelength came to 640 nm.

Regarding `CN(CCO)c1ccc2c(c1)sc1cc(/C=C3\SC(=S)NC3=O)sc12` [dye36], the “Fluorescence intensity ratio” value was 510; the Emission wavelength worked out at 735 nm.

For `O=C1NC(=S)S/C1=C\c1cc2sc(N(CCO)CCO)cc2s1` [dye20], the “Fluorescence intensity ratio” value is 1133; the Emission wavelength was determined as 650 nm.

`CN1C(=O)/C(=C/c2nc3ccc(N(C)CCO)cc3o2)NC1=S` [dye29]: the “Fluorescence intensity ratio” value is 721; the Emission wavelength came to 650 nm.

Regarding `CN(CCO)c1cc2c(s1)-c1sc(/C=C3\OC(=N)NC3=N)cc1[Si]2(C)C` [dye37], the “Fluorescence intensity ratio” value is reported as 620; the Emission wavelength is 720 nm.

For the compound `CN(CCO)c1cc2sc(/C=C3\SC(=O)NC3=O)cc2s1` [dye11], the “Fluorescence intensity ratio” value is listed as 954; the Emission wavelength was 590 nm.

With `CN(CCO)c1cc2c(s1)-c1sc(/C=C3\SC(=S)NC3=S)cc1C2(C)C` [dye42], the “Fluorescence intensity ratio” value is given as 364; the Emission wavelength was 800 nm.

As to `CN(CCO)c1ccc2nc(/C=C3\SC(=S)NC3=O)sc2c1` [dye27], the “Fluorescence intensity ratio” value came out at 765; the Emission wavelength came to 590 nm.

As for `CCCCCCCCCCN(C)c1cc2sc(/C=C3\SC(=S)N(C)C3=O)cc2s1` [dye19], the “Fluorescence intensity ratio” value was 1098; the Emission wavelength was determined as 650 nm.

Turning to `CN1CCSc2cc(/C=C3\SC(=O)NC3=O)ccc21` [dye5], the “Fluorescence intensity ratio” value is recorded as 1021; the Emission wavelength is 550 nm.

As to `CN(C)CCN(C)c1ccc2cc(/C=C3\SC(=O)NC3=O)sc2c1` [dye24], the “Fluorescence intensity ratio” value worked out at 465; the Emission wavelength stood at 750 nm.

Consider `CN1C(=O)/C(=C/c2cc3sc(N(C)CCO)cc3s2)SC1=S` [dye15], for which the “Fluorescence intensity ratio” value worked out at 891; the Emission wavelength turned out to be 655 nm.

On to `CN(CCO)c1cc2cc3sc(/C=C4\OC(=S)NC4=S)cc3cc2s1` [dye38], for which the “Fluorescence intensity ratio” value is given as 741; the Emission wavelength is 730 nm.

On to `CN(CCO)c1ccc2c(c1)C(C)(C)c1cc(/C=C3\SC(=S)NC3=S)sc1-2` [dye39], for which the “Fluorescence intensity ratio” value came to 627; the Emission wavelength turned out to be 820 nm.

As for `CN1C(=O)/C(=C/c2ccc3cc(N(C)CCCl)ccc3n2)SC1=S` [dye26], the “Fluorescence intensity ratio” value is given as 871; the Emission wavelength is 660 nm.

Take `CN(CCO)c1ccc2c(c1)C(C)(C)C(/C=C1\SC(=S)NC1=O)=N2` [dye45]: the “Fluorescence intensity ratio” value amounted to 562; the Emission wavelength is 717 nm.

Turning to `CCN1C(=O)/C(=C/c2ncc(N(C)CCO)s2)SC1=S` [dye2], the “Fluorescence intensity ratio” value is recorded as 587; the Emission wavelength was found to be 532 nm.

The values above are taken from patent publication US20240352309A1, “FLUORESCENT DYE, AND PREPARATION METHOD THEREFOR AND USE THEREOF” (FLUORESCENCE DIAGNOSIS (SHANGHAI) BIOTECH COMPANY LTD., priority 2021, published 2024).
